Measurements from DBAASP.
In brackets after ≈: the same amount, converted by molar mass. Each block holds one compound with its values, some of them ahead of it.

Tests used:
Assay in all cases: ≥ marks a high value that may be exact or a test limit, other limits are often not marked, values filed in µg/mL are converted to µM
[1] = system: Escherichia coli ATCC 8739
[2] = system: Streptococcus pyogenes ATCC 19615
[3] = system: Bacillus subtilis ATCC 6633
[4] = system: Staphylococcus aureus ATCC 29213
[5] = system: Klebsiella pneumoniae ATCC 13885
[6] = system: Proteus mirabilis ATCC 25933
[7] = system: Pseudomonas aeruginosa ATCC 15442
[8] = system: Salmonella enterica subsp. enterica serovar Typhimurium ATCC 14028
[9] = system: Enterococcus faecalis ATCC 12953
Pseudomonas aeruginosa 1 = system: Pseudomonas aeruginosa 1
Staphylococcus aureus 5 = system: Staphylococcus aureus 5
Staphylococcus aureus 4 = system: Staphylococcus aureus 4
Enterococcus faecium = system: Enterococcus faecium
Escherichia coli O157 = system: Escherichia coli O157
Pseudomonas aeruginosa 2 = system: Pseudomonas aeruginosa 2
Staphylococcus aureus = system: Staphylococcus aureus
Staphylococcus aureus 1 = system: Staphylococcus aureus 1
Pseudomonas aeruginosa 5 = system: Pseudomonas aeruginosa 5
[10] = system: Micrococcus luteus ATCC 10240
Escherichia coli BL21AI = system: Escherichia coli BL21AI
[11] = system: Escherichia coli DSM 10233
[12] = system: Klebsiella pneumoniae DSM 681
Pseudomonas aeruginosa = system: Pseudomonas aeruginosa
[13] = system: Escherichia coli O157:H7 ATCC 43895
[14] = system: Staphylococcus aureus ATCC 25923
[15] = system: Malassezia furfur KCTC 7744
[16] = system: Candida albicans ATCC 90028
[17] = system: Enterococcus faecium ATCC 19434
[18] = system: Aspergillus flavus KCTC 1375
Escherichia coli = system: Escherichia coli
[19] = system: Pseudomonas aeruginosa ATCC 27853
[20] = system: Bacillus subtilis IFO 3143
[21] = system: Escherichia coli KCTC 1682
[22] = system: Bacillus subtilis KCTC 3068
[23] = system: Staphylococcus aureus KCTC 1621
[24] = system: Salmonella typhimurium KCTC 1926
[25] = system: Pseudomonas aeruginosa IFO 12582
[26] = system: Pseudomonas aeruginosa KCTC 1637
[27] = system: Staphylococcus aureus IFO 12732
[28] = system: Staphylococcus epidermidis KCTC 1917
[29] = system: Escherichia coli IFO 12734
[30] = system: Trichosporon beigelii KCTC 7707
[31] = system: Saccharomyces cerevisiae KCTC 7296
[32] = system: Bacillus subtilis KCTC 1918
[33] = system: Proteus vulgaris KCTC 2433
[34] = system: Candida albicans TIMM 1768

SMILES: CC[C@H](C)[C@H](N)C(=O)N[C@@H](CCCCN)C(=O)N[C@@H](Cc1ccccc1)C(=O)N[C@@H](CCC(=O)O)C(=O)N1CCC[C@H]1C(=O)N1CCC[C@H]1C(=O)N[C@@H](CC(C)C)C(=O)N1CCC[C@H]1C(=O)N1CCC[C@H]1C(=O)N[C@@H](CCCCN)C(=O)N[C@@H](CCCCN)C(=O)N[C@@H](C)C(=O)N[C@@H](Cc1cnc[nH]1)C(N)=O [IKFEPPLPPKKAH]
MIC [1]: 21.3 µM (≈ 32 µg/mL)
MIC [2]: ≥ 42.6 µM
MIC [3]: ≥ 42.6 µM
MIC [4]: 42.6 µM (≈ 64 µg/mL)
MIC [5]: 21.3 µM (≈ 32 µg/mL)
MIC [6]: ≥ 42.6 µM
MIC [7]: 21.3 µM (≈ 32 µg/mL)
MIC [8]: 42.6 µM (≈ 64 µg/mL)
MIC [9]: ≥ 42.6 µM

SMILES: CC[C@H](C)[C@H](NC(=O)[C@@H]1CCCN1C(=O)[C@H](CCCN=C(N)N)NC(=O)[C@@H]1CCCN1C(=O)[C@H](Cc1cnc[nH]1)NC(=O)[C@H](CO)NC(=O)[C@@H](NC(=O)[C@@H]1CCCN1C(=O)[C@H](CCCN=C(N)N)NC(=O)[C@@H]1CCCN1C(=O)[C@@H](NC(=O)[C@H](Cc1ccc(O)cc1)NC(=O)[C@@H]1CCCN1C(=O)[C@H](CCCN=C(N)N)NC(=O)[C@@H]1CCCN1C(=O)[C@H](CCCCN)NC(=O)CN)[C@@H](C)O)[C@@H](C)O)C(=O)N[C@@H](CCCN=C(N)N)C(=O)N[C@H](C(=O)O)C(C)C [GKPRPYTPRPTSHPRPIRV]
MIC [10]: 0.904 µM (≈ 2 µg/mL)
MIC (Escherichia coli BL21AI): 3.62 µM (≈ 8 µg/mL)
MIC [11]: 0.904 µM (≈ 2 µg/mL)
MIC [12]: 3.62 µM (≈ 8 µg/mL)

SMILES: CC[C@H](C)[C@H](NC(=O)CNC(=O)[C@H](CC(C)C)NC(=O)[C@H](CCCN=C(N)N)NC(=O)[C@H](CCCCN)NC(=O)[C@H](Cc1ccccc1)NC(=O)[C@@H](NC(=O)[C@H](CCCCN)NC(=O)[C@H](CCCCN)NC(=O)[C@H](C)N)C(C)C)C(=O)NCC(=O)N[C@@H](C)C(=O)N[C@H](C(=O)N[C@@H](CC(C)C)C(=O)N[C@@H](CCCCN)C(=O)N[C@H](C(=O)N[C@@H](CC(C)C)C(=O)N[C@@H](CCCCN)C(=O)N[C@@H](CCCCN)C(=O)NCC(=O)O)C(C)C)C(C)C [AKKVFKRLGIGAVLKVLKKG]
MIC [30]: 4.42 µM (≈ 9.52 µg/mL)
MIC [23]: 1.56 µM (≈ 3.36 µg/mL)
MIC [24]: 0.19 µM (≈ 0.409 µg/mL)
MIC [31]: 6.25 µM (≈ 13.5 µg/mL)
MIC [32]: 0.78 µM (≈ 1.68 µg/mL)
MIC [33]: 0.39 µM (≈ 0.84 µg/mL)
MIC [34]: 6.25 µM (≈ 13.5 µg/mL)

Second part, the compound after the results:

MIC (Pseudomonas aeruginosa 1): 20 µM (≈ 23.1 µg/mL)
MIC (Staphylococcus aureus 5): ≥ 40 µM
MIC (Staphylococcus aureus 4): 14.1 µM (≈ 16.4 µg/mL)
MIC (Enterococcus faecium): 10 µM (≈ 11.6 µg/mL)
MIC (Escherichia coli O157): 20 µM (≈ 23.1 µg/mL)
MIC (Pseudomonas aeruginosa 2): 10 µM (≈ 11.6 µg/mL)
MIC (Staphylococcus aureus): 20 µM (≈ 23.1 µg/mL)
MIC (Staphylococcus aureus 1): 10 µM (≈ 11.6 µg/mL)
MIC (Pseudomonas aeruginosa 5): 14.1 µM (≈ 16.4 µg/mL)
SMILES: CC[C@H](C)[C@H](NC(=O)[C@H](CC(C)C)NC(=O)[C@H](CCCN=C(N)N)NC(=O)[C@@H](NC(=O)[C@H](C)NC(=O)[C@H](CCCCN)NC(=O)[C@H](CO)NC(=O)[C@H](CC(C)C)NC(=O)[C@@H](N)CCC(=O)O)C(C)C)C(=O)N[C@@H](CCCCN)C(=O)O [ELSKAVRLIK]

MIC (Pseudomonas aeruginosa): 28.3 µM (≈ 68.2 µg/mL)
MIC [13]: 20 µM (≈ 48.2 µg/mL)
MIC [14]: 20 µM (≈ 48.2 µg/mL)
MIC [15]: 20 µM (≈ 48.2 µg/mL)
MIC [16]: 14.1 µM (≈ 34.1 µg/mL)
MIC [17]: 20 µM (≈ 48.2 µg/mL)
MIC [18]: 20 µM (≈ 48.2 µg/mL)
MIC (Escherichia coli): 28.3 µM (≈ 68.2 µg/mL)
MIC (Enterococcus faecium): 28.3 µM (≈ 68.2 µg/mL)
MIC [19]: 14.1 µM (≈ 34.1 µg/mL)
MIC (Staphylococcus aureus): 14.1 µM (≈ 34.1 µg/mL)
SMILES: CC(C)C[C@H](NC(=O)[C@H](Cc1ccc(O)cc1)NC(=O)[C@H](Cc1cnc[nH]1)NC(=O)[C@@H](NC(=O)[C@H](CC(C)C)NC(=O)[C@H](C)NC(=O)[C@H](C)NC(=O)[C@H](CCCCN)NC(=O)CNC(=O)[C@@H](NC(=O)[C@H](Cc1cnc[nH]1)NC(=O)[C@H](CCCCN)NC(=O)CNC(=O)[C@@H](NC(=O)[C@H](Cc1cnc[nH]1)NC(=O)[C@H](C)NC(=O)[C@H](C)NC(=O)[C@H](CCCCN)NC(=O)[C@H](CCCCN)NC(=O)[C@H](Cc1ccccc1)NC(=O)[C@H](Cc1ccccc1)NC(=O)[C@@H](N)CO)C(C)C)C(C)C)[C@@H](C)O)C(N)=O [SFFKKAAHVGKHVGKAALTHYL]

MIC [20]: 0.365 µM (≈ 1 µg/mL)
MIC [21]: 1 µM (≈ 2.74 µg/mL)
MIC [22]: 4 µM (≈ 11 µg/mL)
MIC [23]: 0.5 µM (≈ 1.37 µg/mL)
MIC [24]: 1 µM (≈ 2.74 µg/mL)
MIC [25]: 1.46 µM (≈ 4 µg/mL)
MIC [26]: 1 µM (≈ 2.74 µg/mL)
MIC [27]: 1.46 µM (≈ 4 µg/mL)
MIC [28]: 0.5 µM (≈ 1.37 µg/mL)
MIC [29]: 0.73 µM (≈ 2 µg/mL)
SMILES: CC(C)C[C@H](NC(=O)[C@H](Cc1ccc(O)cc1)NC(=O)[C@H](Cc1cnc[nH]1)NC(=O)[C@@H](NC(=O)[C@H](CC(C)C)NC(=O)[C@H](C)NC(=O)[C@H](C)NC(=O)[C@H](CCCCN)NC(=O)[C@H](C)NC(=O)[C@@H](NC(=O)[C@H](Cc1cnc[nH]1)NC(=O)[C@H](CCCCN)NC(=O)[C@H](C)NC(=O)[C@@H](NC(=O)[C@H](Cc1cnc[nH]1)NC(=O)[C@H](C)NC(=O)[C@H](C)NC(=O)[C@H](CCCCN)NC(=O)[C@H](CCCCN)NC(=O)[C@H](Cc1ccccc1)NC(=O)[C@H](Cc1ccccc1)NC(=O)[C@H](CO)NC(=O)CNC(=O)[C@H](Cc1c[nH]c2ccccc12)NC(=O)CN)C(C)C)C(C)C)[C@@H](C)O)C(=O)O [GWGSFFKKAAHVAKHVAKAALTHYL]
